# Data taken from paper PMC3519854, “High Yield Production and Refolding of the Double-Knot Toxin, an Activator of TRPV1 Channels” (PLoS ONE, 2012).
# Positions of bridges follow the written chain, without caps; N, C: chain ends. Residues, ends and D or L forms follow the SMILES beside them.
# Columns and labels:
# rat TRPV1 = biological target: T1, rat TRPV1 (Rattus norvegicus, UniProt O35433); assay: Two-electrode voltage clamp recording of TRPV1 activation in oocytes; type: cell-based; conditions: for Relative potency as TRPV1 agonist: comparison of DkTx, K1 and K2, concentration-dependence in oocytes; for Hill coefficient for activation of TRPV1 / Reversibility of TRPV1 activation after removal of the toxin / Activation of TRPV1 channels (evoked currents): rat TRPV1 in Xenopus oocytes; for Hill coefficient for activation of TRPV1: concentration-dependence; for Activation of TRPV1 channels (evoked currents): holding voltage −60 mV, DkTx applied at 1 µM
# T1 construct: expressed in transfected cells; host or cells: Xenopus laevis oocytes injected with cRNA (pGEM-HE vector)
# T1 sequence (O35433 whole entry): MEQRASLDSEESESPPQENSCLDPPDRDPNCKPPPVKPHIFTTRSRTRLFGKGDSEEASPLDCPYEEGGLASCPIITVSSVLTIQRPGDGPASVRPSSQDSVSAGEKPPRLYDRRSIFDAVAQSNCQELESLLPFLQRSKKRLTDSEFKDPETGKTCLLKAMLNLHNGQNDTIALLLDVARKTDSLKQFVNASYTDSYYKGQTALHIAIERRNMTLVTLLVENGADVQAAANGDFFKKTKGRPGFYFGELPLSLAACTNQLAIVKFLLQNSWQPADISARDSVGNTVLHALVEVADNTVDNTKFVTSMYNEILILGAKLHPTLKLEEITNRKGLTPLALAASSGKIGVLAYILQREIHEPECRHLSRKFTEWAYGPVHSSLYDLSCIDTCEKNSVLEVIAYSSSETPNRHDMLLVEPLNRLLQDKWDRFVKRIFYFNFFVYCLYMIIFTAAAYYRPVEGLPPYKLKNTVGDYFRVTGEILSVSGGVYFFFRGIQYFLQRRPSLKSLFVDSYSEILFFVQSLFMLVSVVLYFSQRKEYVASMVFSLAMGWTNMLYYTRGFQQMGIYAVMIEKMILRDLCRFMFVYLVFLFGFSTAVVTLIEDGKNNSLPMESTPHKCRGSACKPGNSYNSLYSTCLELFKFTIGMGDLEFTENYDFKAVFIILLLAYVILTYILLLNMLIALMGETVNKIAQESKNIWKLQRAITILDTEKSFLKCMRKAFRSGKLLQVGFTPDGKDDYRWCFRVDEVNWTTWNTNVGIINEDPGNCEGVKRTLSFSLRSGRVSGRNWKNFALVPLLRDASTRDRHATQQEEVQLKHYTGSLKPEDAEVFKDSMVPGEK
# Method: (§1) Oocytes were surgically removed from anesthetized Xenopus laevis frogs in accordance with protocol 1253-12 approved by the National Institute of Neurological Disorders and Stroke Animal Care and Use Committee. Oocytes were gently shaken for 60 min in a solution of 82.5 mM NaCl, 2.5 mM KCl, 1 mM MgCl2, 5 mM HEPES and 2 mg/mL collagenase. A rat TRPV1 construct (generously provided by D. Julius, UCSF) was cloned into the pGEM-HE vector, and used to generate cRNA. The cRNA was then injected into oocytes, which were then incubated for 1–3 days at 17°C in ND-96 solution (96 mM NaCl, 2 mM KCl, 5 mM HEPES, 1 mM MgCl2 and 50 µg/mL gentamycin, titrated to pH 7.6 with NaOH). TRPV1 activity was recorded under voltage clamp using a two-electrode voltage clamp (OC-725C; Warner Instruments) in a 150-µL recording chamber. The recorded data were filtered at 1 kHz and digitized at 5 kHz using a digidata analog/digital converter and pClamp software (Molecular Devices). Microelectrode resistances were 0.1–1 MΩ when filled with 3 M KCl. The external recording solution contained 115 mM NaCl, 2.5 mM KCl, 1.5 mM MgCl2 and 10 mM HEPES, titrated to pH 7.4 with NaOH. All experiments were performed at room temperature (∼22°C).
# Figure 6 Activity of K1, K2 and DkTx on TRPV1 channels. (A) Synthetic K1, K2 and DkTx activate TRPV1 channels. Oocytes were held at −60 mV and toxins were added to the recording chamber. (B) Concentration-dependence for activation of TRPV1 by the toxins.
# (§2) The functional activities of DkTx, K1 and K2 were also compared by recording their electrophysiological effects on TRPV1-expressing cells.
# A657P mutant of TRPV1 [1] = assay: Two-electrode voltage clamp recording on the A657P mutant of TRPV1; type: cell-based; conditions: data not shown
# Method: as §1, §2
# [2] = Relative hydrophobicity by RP-HPLC elution of folded versus linear toxin; type: physicochemical; conditions: RP-HPLC C18, acetonitrile/water gradient with 0.1% TFA, qualitative
# Method: Figure 3 Purification and activity of the DkTx folding product. (A) Purification of linear DkTx. Cleavage of the fusion protein and reduction of the disulfide bond were accomplished using hydroxylamine and DTT, respectively, as described in methods. (B) Linear DkTx was folded in 1 M NH4OAc (pH 8.0) buffer containing 1 M GdnHCl, 1 mM EDTA, 2.5 mM GSH and 0.25 mM GSSG for 5 days at 4°C. The toxins were purified using a linear gradient of 29–44% solvent B for 15 min at a flow rate of 14 ml/min, where solvent A was water containing 0.1% TFA and solvent B was acetonitrile containing 0.1% TFA. (C) Fraction 5 activated TRPV1 expressed in oocytes. Holding voltage was −60 mV.
# Figure 4 HPLC profiles of DkTx during the folding reaction. The peptides were separated using a linear gradient of 5–65% solvent B for 30 min at a flow rate of 1 ml/min, where solvent A was water containing 0.1% TFA and solvent B was acetonitrile containing 0.1% TFA. (A) Oxidative folding of DkTx in redox buffer was monitored by HPLC. Asterisks indicate correctly folded DkTx. (B) HPLC chromatogram of purified DkTx. Dashed and solid arrows indicate the minor and major forms of DkTx, respectively. […]
# Figure 5 Folding kinetics of K1, K2 and DkTx. […] Quantification of the folding specifies was accomplished using HPLC. The correctly folded form (%) was determined based on the areas of the HPLC peaks. […]
# A657P mutant of TRPV1 [3] = conditions: cited from earlier work
# Description: as §2
Molecule,Relative potency as TRPV1 agonist (rat TRPV1),Hill coefficient for activation of TRPV1 (rat TRPV1),Reversibility of TRPV1 activation after removal of the toxin (rat TRPV1; −60 mV),Activation of the A657P mutant of TRPV1 (A657P mutant of TRPV1 [1]),Hydrophobicity of the correctly folded form relative to the linear form [2],"Block of DkTx-evoked TRPV1 currents (rat TRPV1; currents evoked by 1 µM DkTx in oocytes, −60 mV)",Activation of TRPV1 channels (evoked currents) (rat TRPV1),Activation of TRPV1 channels (evoked currents) (rat TRPV1; listed as fraction 5),Sensitivity of the A657P mutant of TRPV1 to toxin (A657P mutant of TRPV1 [3])
"CC[C@H](C)[C@@H]1NC(=O)[C@H](Cc2ccccc2)NC(=O)[C@H](C)NC(=O)[C@H](CC(C)C)NC(=O)[C@@H]2CCCN2C(=O)[C@@H]2CSSC[C@@H]3NC(=O)[C@H](C(C)C)NC(=O)[C@H](CCC(=O)O)NC(=O)CNC(=O)[C@H](CCC(=O)O)NC(=O)[C@H](CCCCN)NC(=O)[C@H](C)NC(=O)[C@@H](NC(=O)[C@@H](N)CC(N)=O)CSSC[C@H](NC(=O)[C@H](CSSC[C@@H](C(=O)N[C@@H](CCC(=O)O)C(=O)N[C@@H](CCCCN)C(=O)N[C@@H](Cc4ccc(O)cc4)C(=O)N[C@@H](CCCNC(=N)N)C(=O)O)NC(=O)[C@H](Cc4ccc(O)cc4)NC(=O)[C@@H]4CCCN4C1=O)NC(=O)[C@H](CCCCN)NC(=O)[C@H](CO)NC(=O)CNC(=O)[C@H](Cc1c[nH]c4ccccc14)NC(=O)CNC3=O)C(=O)N[C@@H](Cc1c[nH]cn1)C(=O)NCC(=O)N[C@@H](CC(C)C)C(=O)N[C@@H](CC(=O)O)C(=O)N2 [K2] (H-NCAKEGEVCGWGSKCCHGLDCPLAFIPYCEKYR-OH; disulfide 2-16, 9-21, 15-29 (inferred); N-terminus and C-terminus assumed)",more active than K1,about 4,readily reversible,neither toxin activated the channel,more hydrophobic than the linear or misfolded forms,–,–,–,–
"N.N.N.N.N.N.N.N.N.N.N.N.N.N.[Cl-].[Cl-].[Cl-].[Cl-].[Cl-].[Cl-].[O-2].[O-2].[Ru+3].[Ru+3].[Ru+4] [ruthenium red, reference compound]",–,–,–,–,–,blocked,–,–,–
"GDCAKEGEVCSWGKKCCDLDNFYCPMEFIPHCKKYKPYVPVTTNCAKEGEVCGWGSKCCHGLDCPLAFIPYCEKYR (disulfide 3-17, 10-24, 16-32, 45-59, 52-64, 58-72 (inferred)) [DkTx, double-knot toxin]",most potent TRPV1 agonist among the three toxins,~1,decayed slowly,–,more hydrophobic than the linear form,–,evoked large currents,robustly activated TRPV1 channels,insensitive
